Results published in US8445680B2, “Tetrahydrothieno pyridines” (Merck Sharp & Dohme Corp., priority 2008, dated 2013).
Counter-ions that a name gives are not always drawn.

target: T1, FLAG-tagged full length PHD2 (Homo sapiens, UniProt Q9GZT9); test: PHD2 inhibition assay (time resolved fluorescence, HIF-1α peptide hydroxylation, VHL detection); assay type: biochemical; conditions: 0.2 μM 2-oxoglutarate, 0.5 μM HIF-1α peptide, 2 hr at room temperature; read-out: PHD2 Activity (PHD2 binding activity expressed as IC50)
T1 construct: FLAG-tagged full length PHD2; FLAG; made in house; host or cells: baculovirus-infected Sf9 cells
T1 sequence (Q9GZT9 whole entry): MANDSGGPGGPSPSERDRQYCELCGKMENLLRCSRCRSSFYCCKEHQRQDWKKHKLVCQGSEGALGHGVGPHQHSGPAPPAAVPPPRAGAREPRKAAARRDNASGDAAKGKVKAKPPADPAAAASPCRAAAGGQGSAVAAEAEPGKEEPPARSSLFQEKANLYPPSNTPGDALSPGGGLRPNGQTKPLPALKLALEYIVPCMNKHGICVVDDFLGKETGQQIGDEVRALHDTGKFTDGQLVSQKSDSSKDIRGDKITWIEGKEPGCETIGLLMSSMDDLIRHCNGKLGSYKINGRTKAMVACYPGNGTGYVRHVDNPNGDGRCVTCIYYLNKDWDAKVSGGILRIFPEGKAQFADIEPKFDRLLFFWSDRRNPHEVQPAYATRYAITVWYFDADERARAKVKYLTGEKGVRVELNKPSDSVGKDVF
Procedure: To each well of a 96-well plate was added 1 μL of test compound in DMSO and 20 μl of assay buffer (50 mM Tris pH 7.4/0.01% Tween-20/0.1 mg/ml bovine serum albumin/10 μM ferrous sulfate/1 mM sodium ascorbate/20 μg/ml catalase) containing 0.15 μg/ml FLAG-tagged full length PHD2 expressed in and purified from baculovirus-infected Sf9 cells. After a 30 min preincubation at room temperature, the enzymatic reactions were initiated by the addition of 4 μL of substrates (final concentrations of 0.2 μM 2-oxoglutarate and 0.5 μM HIF-1α peptide biotinyl-[…]).

IC50 | Compound
≤ 10 nM | O=C(O)CNC(=O)c1c(O)c2c(n(Cc3cnc(-c4ccccc4F)cn3)c1=O)CSC2 [Example 26, N-[(1-{[5-(2-fluorophenyl)pyrazin-2-yl]methyl}-4-hydroxy-2-oxo-1,2,5,7-tetrahydrothieno[3,4-b]pyridin-3-yl)carbonyl]glycine]
≤ 10 nM | O=C(O)CNC(=O)c1c(O)c2c(n(Cc3cc4ccccc4s3)c1=O)CSC2 [Example 22, N-{[1-(1-benzothien-2-ylmethyl)-4-hydroxy-2-oxo-1,2,5,7-tetrahydrothieno[3,4-b]pyridin-3-yl]carbonyl}glycine]
≤ 10 nM | O=C(O)CNC(=O)c1c(O)c2c(n(Cc3ccc(Cl)c(Cl)c3)c1=O)CSC2 [Example 19, N-{[1-(3,4-dichlorobenzyl)-4-hydroxy-2-oxo-1,2,5,7-tetrahydrothieno[3,4-b]pyridin-3-yl]carbonyl}glycine]
≤ 10 nM | N#Cc1cccc(-c2ccc(Cn3c4c(c(O)c(C(=O)NCC(=O)O)c3=O)CSC4)cc2)c1 [Example 46, N-({1-[(3′-cyanobiphenyl-4-yl)methyl]-4-hydroxy-2-oxo-1,2,5,7-tetrahydrothieno[3,4-b]pyridin-3-yl}carbonyl)glycine]
≤ 10 nM | O=C(O)CNC(=O)c1c(O)c2c(n(Cc3ccc(-c4ccc(C(F)(F)F)cc4)nc3)c1=O)CSC2 [Example 44, N-{[4-hydroxy-2-oxo-1-({6-[4-(trifluoromethyl)phenyl]pyridinium-3-yl}methyl)-1,2,5,7-tetrahydrothieno[3,4-b]pyridin-3-yl]caxbonyl}glycine trifluoroacetate]
≤ 10 nM | CC(C)(C)c1ccc(Cn2c3c(c(O)c(C(=O)NCC(=O)O)c2=O)CSC3)cc1 [Example 9, N-{[1-(4-tert-butylbenzyl)-4-hydroxy-2-oxo-1,2,5,7-tetrahydrothieno[3,4-b]pyridin-3-yl]caxbonyl]glycine]
≤ 10 nM | O=C(O)CNC(=O)c1c(O)c2c(n(Cc3ccc(Cl)cc3)c1=O)CS(=O)(=O)C2 [Example 60, N-{[1-(4-chlorobenzyl)-4-hydroxy-6,6-dioxido-2-oxo-1,2,5,7-tetrahydrothieno[3,4-b]pyridin-3-yl]carbonyl}glycine]
≤ 10 nM | CCc1ccccc1-c1ccc(Cn2c3c(c(O)c(C(=O)NCC(=O)O)c2=O)CSC3)cn1 [Example 50, N-[(l-{[6-(2-ethylphenyl)pyridinium-3-yl]methyl}-4-hydroxy-2-oxo-1,2,5,7-tetrahydrothieno[3,4-b]pyridin-3-yl)carbonyl]glycine trifluoroacetate]
≤ 10 nM | O=C(O)CNC(=O)c1c(O)c2c(n(Cc3ccc(OC(F)(F)F)cc3)c1=O)CSC2 [Example 20, N-({4-hydroxy-2-oxo-1-[4-(trifluoromethoxy)benzyl]-1,2,5,7-tetrahydrothieno[3,4-b]pyridin-3-yl}carbonyl)glycine]
≤ 10 nM | O=C(O)CNC(=O)c1c(O)c2c(n(Cc3ccc(Br)cc3)c1=O)CSC2 [Example 2]
≤ 10 nM | Cc1ccc(-c2ccc(Cn3c4c(c(O)c(C(=O)NCC(=O)O)c3=O)CS(=O)(=O)C4)cc2)cc1 [Example 58, N-({4-hydroxy-1-[(4′-methylbiphenyl-4-yl)methyl]-6,6-dioxido-2-oxo-1,2,5,7-tetrahydrothieno[3,4-b]pyridin-3-yl}carbonyl)glycine]
≤ 10 nM | O=C(O)CNC(=O)c1c(O)c2c(n(Cc3ccc(-c4ccccc4F)nc3)c1=O)CSC2 [Example 43, N-[(l-{[6-(2-fluorophenyl)pyridin-3-yl]methyl}-4-hydroxy-2-oxo-1,2,5,7-tetrahydrothieno[3,4-b]pyridin-3-yl)carbonyl]glycine]
≤ 10 nM | CSc1ccccc1-c1cnc(Cn2c3c(c(O)c(C(=O)NCC(=O)O)c2=O)CSC3)cn1 [Example 55, N-{[4-hydroxy-1-({5-[2-(methylthio)phenyl]pyrazin-2-yl}methyl)-2-oxo-1,2,5,7-tetrahydrothieno[3,4-b]pyridin-3-yl]carbonyl}glycine]
≤ 10 nM | CSc1ccccc1-c1ccc(Cn2c3c(c(O)c(C(=O)NCC(=O)O)c2=O)CSC3)cn1 [Example 47, N-{[4-hydroxy-1-({6-[2-(methylthio)phenyl]pyridinium-3-yl}methyl)-2-oxo-1,2,5,7-tetrahydrothieno[3,4-b]pyridin-3-yl]carbonyl}glycine trifluoroacetate]
≤ 10 nM | CCN(CC)C(=O)c1ccccc1-c1ccc(Cn2c3c(c(O)c(C(=O)NCC(=O)O)c2=O)CSC3)cc1 [Example 37, N-{[1-({2′-[(diethylamino)carbonyl]biphenyl-4-yl}methyl)-4-hydroxy-2-oxo-1,2,5,7-tetrahydrothieno[3,4-b]pyridin-3-yl]carbonyl}glycine]
≤ 10 nM | Cc1ccc(-c2ccc(Cn3c4c(c(O)c(C(=O)NCC(=O)O)c3=O)C[S+]([O-])C4)cc2)cc1 (stereo not shown) [Example 59, N-({4-hydroxy-1-[(4′-methylbiphenyl-4-yl)methyl]-6-oxido-2-oxo-1,2,5,7-tetrahydrothieno[3,4-b]pyridin-3-yl}carbonyl)glycine]

IC50 | Compound
≤ 10 nM | Cc1ccc(-c2ccc(Cn3c4c(c(O)c(C(=O)NCC(=O)O)c3=O)CSC4)cc2)cc1 [Example 25, N-({4-hydroxy-1-[(4′-methylbiphenyl-4-yl)methyl]-2-oxo-1,2,5,7-tetrahydrothieno[3,4-b]pyridin-3-yl}carbonyl)glycine]
≤ 10 nM | CCc1ccc(Cn2c3c(c(O)c(C(=O)NCC(=O)O)c2=O)CS(=O)(=O)C3)cc1 [Example 66, N-{[1-(4-ethylbenzyl)-4-hydroxy-6,6-dioxido-2-oxo-1,2,5,7-tetrahydrothieno[3,4-b]pyridin-3-yl]carbonyl}glycine]
≤ 10 nM | O=C(O)CNC(=O)c1c(O)c2c(n(Cc3ccc(C(F)(F)F)cc3)c1=O)CS(=O)(=O)C2 [Example 63, N-({4-hydroxy-6,6-dioxido-2-oxo-1-[4-(trifluoromethyl)benzyl]-1,2,5,7-tetrahydrothieno[3,4-6]pyridin-3-yl}carbonyl)glycine]
≤ 10 nM | O=C(O)CNC(=O)c1c(O)c2c(n(Cc3ccc(Cl)cc3)c1=O)CSC2 [Example 16, N-{[1-(4-chlorobenzyl)-4-hydroxy-2-oxo-1,2,5,7-tetrahydrothieno[3,4-b]pyridin-3-yl]carbonyl}glycine]
≤ 10 nM | O=C(O)CNC(=O)c1c(O)c2c(n(Cc3ccc(Oc4ccc(Cl)cc4)cc3)c1=O)CSC2 [Example 33, N-({1-[4-(4-chlorophenoxy)benzyl]-4-hydroxy-2-oxo-1,2,5,7-tetrahydrothieno[3,4-b]pyridin-3-yl}carbonyl)glycine]
≤ 10 nM | O=C(O)CNC(=O)c1c(O)c2c(n(Cc3cnc(-c4ccccc4C(F)(F)F)cn3)c1=O)CSC2 [Example 57, N-{[4-hydroxy-2-oxo-1-({5-[2-(trifluoromethyl)phenyl]pyrazin-2-yl}methyl)-1,2,5,7-tetrahydrothieno[3,4-b]pyridin-3-yl]carbonyl}glycine]
≤ 10 nM | O=C(O)CNC(=O)c1c(O)c2c(n(Cc3ccc(-c4ccc(Cl)cc4)cc3)c1=O)CSC2 [Example 30, N-({1-[(4′-chlorobiphenyl-4-yl)methyl]-4-hydroxy-2-oxo-1,2,5,7-tetrahydrothieno[3,4-b]pyridin-3-yl}carbonyl)glycine]
≤ 10 nM | Cc1ccccc1-c1cnc(Cn2c3c(c(O)c(C(=O)NCC(=O)O)c2=O)CSC3)cn1 [Example 54, N-[(4-hydroxy-1-{[5-(2-methylphenyl)pyrazin-2-yl]methyl}-2-oxo-1,2,5,7-tetrahydrothieno[3,4-b]pyridin-3-yl)carbonyl]glycine]
≤ 10 nM | Cc1n[nH]c(C)c1-c1ccc(Cn2c3c(c(O)c(C(=O)NCC(=O)O)c2=O)CSC3)cc1 [Example 31, N-({1-[4-(3,5-dimethyl-1H-pyrazol-4-yl)benzyl]-4-hydroxy-2-oxo-1,2,5,7-tetrahydrothieno[3,4-b]pyridin-3-yl}carbonyl)glycine]
≤ 10 nM | O=C(O)CNC(=O)c1c(O)c2c(n(Cc3ccc(C(F)(F)F)cc3)c1=O)CSC2 [Example 4, N-({4-hydroxy-2-oxo-1-[4-(trifluoromethyl)benzyl]-1,2,5,7-tetrahydrothieno[3,4-b]pyridin-3-yl]carbonyl)glycine]
≤ 10 nM | Cc1cc(Cl)ccc1Cn1c2c(c(O)c(C(=O)NCC(=O)O)c1=O)CSC2 [Example 15, N-{[1-(4-chloro-2-methylbenzyl)-4-hydroxy-2-oxo-1,2,5,7-tetrahydrothieno[3,4-b]pyridin-3-yl]carbonyl}glycine]
10 to 100 nM | O=C(O)CNC(=O)c1c(O)c2c(n(-c3ccc(-c4ccc(OC(F)(F)F)cc4)cc3)c1=O)CSC2 [Example 38, N-({4-hydroxy-2-oxo-1-[4′-(trifluoromethoxy)biphenyl-4-yl]-1,2,5,7-tetrahydrothieno[3,4-b]pyridin-3-yl}carbonyl)glycine]
≤ 10 nM | O=C(O)CNC(=O)c1c(O)c2c(n(-c3ccc(Br)cc3)c1=O)CSC2 [Example 12, N-{[1-(4-bromophenyl)-4-hydroxy-2-oxo-1,2,5,7-tetrahydrothieno[3,4-b]pyridin-3-yl]carbonyl]glycine]
≤ 10 nM | O=C(O)CNC(=O)c1c(O)c2c(n(Cc3nc(-c4ccccc4)cs3)c1=O)CSC2 [Example 7, N-({4-hydroxy-2-oxo-1-[(4-phenyl-1,3-thiazol-2-yl)methyl]-1,2,5,7-tetrahydrothieno[3,4-b]pyridin-3-yl}carbonyl)glycine]
≤ 10 nM | O=C(O)CNC(=O)c1c(O)c2c(n(Cc3ccc(-c4ccccc4C(F)(F)F)nc3)c1=O)CSC2 [Example 45, N-{[4-hydroxy-2-oxo-1-({6-[2-(trifluoromethyl)phenyl]pyridinium-3-yl}methyl)-1,2,5,7-tetrahydrothieno[3,4-b]pyridin-3-yl]carbonyl}glycine trifluoroacetate]
